Read-outs that look alike come from different tables or passages of the source.
Columns and labels:
[1] = parameters: method as in ref 14, Figure 2; settings: fed, published; Figure 2; cited from earlier work
[2] = Equilibrium solubility in simulated intestinal fluid, dual level DoE, fed arm; assay type: physicochemical; settings: fed, current study (Figure 3)
From the text: (§1) For each media parameter (bile salt, lecithin, sodium oleate, monoglyceride, cholesterol, pH and BS: PL ratio) lower and upper limit concentration values for fasted and fed states were defined, Table 1. Using Minitab 17.2.1 and a custom experimental design, a 1/16 of the full factorial DoE with the seven factors and two levels (lower and upper limits) was constructed (8 experiments around the upper and lower levels plus two center points) separately for the fasted and the fed states. These two tables were then applied as an input for a factorial custom design of experiment which combined the fasted and fed using all 20 data points to provide an overall analysis. The study therefore consists of three arms, two smaller (10 data point) fasted and fed arms, which are then merged into a larger (20 data point) combined arm.
(§2) When designing and analyzing the DoE, only a factor’s main effects and 2 way interactions have been considered and 3 way interactions or more were not included. For each DoE the magnitude for each factor’s effect on equilibrium solubility was determined by the standardized effect value for all of the individual factors and the significant 2-way interactions. This value was used to articulate whether these factors are increasing or decreasing drug solubility.
(§3) The solution was prepared by the addition of an excess amount (above the estimated solubility) of solid for each compound investigated to a centrifuge tube (15 mL Corning Centristar cap, polypropylene RNase/DNase free, nonpyrogenic) followed by the addition of each component of the simulated intestinal fluid media according to the run order generated by the DoE. After all of the media components were added, pH was adjusted to 5, 6, or 7 according to the run order using 0.1 M HCl or 0.1 M KOH and tubes were capped and placed on an orbital shaker (OS 5 basic Yellowline, IKA, Germany) for 1 h after which the pH was readjusted if required. The 20 different tubes were then shaken in a tube rotator for 24 h at 40 rpm at 37 °C to simulate intestinal fluid conditions. After 24 h, a 1 mL amount was taken from each of the 20 tubes and transferred to a 1.5 mL Eppendorf tube then centrifuged at 15 000 rpm for 5 min. Following centrifugation 0.5 mL of the supernatant solution was transferred to an HPLC vial to analyze drug solubility using HPLC (Table 4).

[3] = reported; cited from earlier work
[4] = Equilibrium solubility in simulated intestinal fluid, dual level DoE, fasted arm; assay type: physicochemical
From the text: as §1, §2, §3

[5] = parameters: method as in ref 13, Figure 2; settings: fasted, published; Figure 2; cited from earlier work
[6] = Equilibrium solubility in simulated intestinal fluid, dual level DoE, combined fasted and fed arm; assay type: physicochemical
From the text: as §1, §2, §3

[7] = Statistical comparison of equilibrium solubility data sets (Mann-Whitney test / two-sample t-test); assay type: physicochemical; settings: current dual level DoE; where significant, fasted solubility lower than fed
From the text: The Kolmogorov normality test was used in Minitab to assess the normality distribution of each data set. A Mann–Whitney test was used to evaluate the median between two data sets (not normally distributed) and the two-sample t-test was used to evaluate the mean of two data sets (normally distributed).

[8] = fasted, current study (Figure 3)

For `COc1cc(C(=O)NS(=O)(=O)c2ccccc2C)ccc1Cc1cn(C)c2ccc(NC(=O)OC3CCCC3)cc12` [zafirlukast], the “statistical significance of DoE factor bile salt on equilibrium solubility” value [1] is given as “S ^d ^g”, the “statistical significance of DoE factor lecithin on equilibrium solubility” value [1] is given as “NS ^e” and the “statistical significance of DoE factor monoglyceride on equilibrium solubility” value [1] is given as “NS ^e”. The “statistical significance of DoE factor pH on equilibrium solubility” value [1] was “S ^d ^g”, the “statistical significance of DoE factor BS:PL on equilibrium solubility” value [2] was “NS ^e” and the “statistical significance of DoE factor bile salt on equilibrium solubility” value [2] was “NS ^e ^g”. For the same molecule, the “statistical significance of DoE factor cholesterol on equilibrium solubility” value [2] was “NS ^e”, the “statistical significance of DoE factor lecithin on equilibrium solubility” value [2] was “NS ^e” and the “statistical significance of DoE factor monoglyceride on equilibrium solubility” value [2] was “NS ^e”. For the same molecule, the “statistical significance of DoE factor pH on equilibrium solubility” value [2] was “NS ^e ^g”, the “statistical significance of DoE factor sodium oleate on equilibrium solubility” value [2] was “NS ^e” and the pKa [3] was 4. The “direction of cholesterol effect on solubility (standardized effect)” value ([4]; fasted arm, Figure 3) was “positive effect”, the “direction of monoglyceride effect on solubility (standardized effect)” value ([4]; fasted arm, Figure 3) was “negative effect” and the “statistical significance of DoE factor BS:PL on equilibrium solubility” value [4, 8] was “NS ^e”. The “statistical significance of DoE factor bile salt on equilibrium solubility” value [4, 8] was “NS ^e ^g”, the “statistical significance of DoE factor cholesterol on equilibrium solubility” value [4, 8] was “S ^d” and the “statistical significance of DoE factor lecithin on equilibrium solubility” value [4, 8] was “NS ^e ^g”. The “statistical significance of DoE factor monoglyceride on equilibrium solubility” value [4, 8] was “S ^d”, the “statistical significance of DoE factor pH on equilibrium solubility” value [4, 8] was “S ^d” and the “statistical significance of DoE factor sodium oleate on equilibrium solubility” value [4, 8] was “NS ^e ^g”. The “statistical significance of DoE factor bile salt on equilibrium solubility” value [5] was “S ^d ^g”, the “statistical significance of DoE factor lecithin on equilibrium solubility” value [5] was “S ^d ^g” and the “statistical significance of DoE factor pH on equilibrium solubility” value [5] was “S ^d”. The “statistical significance of DoE factor sodium oleate on equilibrium solubility” value [5] was “S ^d ^g”, the “significant DoE factors influencing solubility” value ([6]; combined arm (seven possible factors per drug), significance ±2) was “no significant factors” and the “significant two way factor interactions on solubility” value ([6]; combined arm, eight two way interactions, Figure 4) was “significant interactions”. The “statistical comparison of fasted against fed equilibrium solubility” value [7] was “significant difference”.
